The nature of the experiment: In vitro MRI relaxation properties (relaxivity). An excerpt:
In vitro MRI of GdNPs and Polymer Modified Gd NPs. In order to provide information about the clinical imaging viability of the polymer modified gold/Gd nanoparticles, as a positive contrast agent, in vitro MRI was employed to determine relaxation properties of the unmodified and polymer modified gold/Gd nanoparticles. Table 1 compares the MRI longitudinal and transverse relaxivities, r1 and r2, respectively, of PNIPAM-modified gold/Gd nanoparticles and gold/Gd unmodified nanoparticles to the clinically employed contrasts agents, gadopentetate dimeglumine (Magnevist®) and gadobenate dimeglumine (Multihance®). […] By taking advantage of these properties, novel theragnostic polymer-modified gold/Gd nanoparticles could be produced and exploited as contrast agents for conventional T1 MR imaging.

In the case of `CNC[C@H](O)[C@@H](O)[C@H](O)[C@H](O)CO.CNC[C@H](O)[C@@H](O)[C@H](O)[C@H](O)CO.O=C([O-])CN(CCN(CC(=O)[O-])CC(=O)O)CCN(CC(=O)[O-])CC(=O)O.[Gd+3]` [Magnevist ®, gadopentetate dimeglumine], the “r1 (MRI longitudinal relaxivity)” value came to 6.95 mM⁻¹ s⁻¹.
`CNC[C@H](O)[C@@H](O)[C@H](O)[C@H](O)CO.CNC[C@H](O)[C@@H](O)[C@H](O)[C@H](O)CO.O=C([O-])CN(CCN(CC(=O)[O-])CC(=O)O)CCN(CC(=O)O)C(COCc1ccccc1)C(=O)[O-].[Gd+3]` (centres unmarked) [Multihance ®, gadobenate dimeglumine]: the r1 (MRI longitudinal relaxivity) amounted to 17.7 mM⁻¹ s⁻¹.

(Values after patent publication US10406111B2, “Gold/lanthanide nanoparticle conjugates and uses thereof” (COLORADO SCHOOL OF MINES, priority 2009, dated 2019).)
